Laboratory results: patent publication US7074773B2, “Pharmaceutical composition for diabetic neuropathy” (priority 2001, dated 2006)
Where a name gives a salt, the structure may show the parent alone.

Key:
[1] = test system: streptozotocin-induced diabetic mouse; assay: Assessment (threshold analysis) of thermal nociceptive response, tail-flick test, using diabetic mouse; assay type: in vivo, male ICR mice
Method: Test: Assessment (Threshold Analysis) of Thermal Nociceptive Response Using Diabetic Mouse (in vivo)
This test was performed according to the method of Osawa and Kamei [Eur. J. Pharmacol., 372, 221–228 (1999)]. […]
The assessment was performed using a tail-flick test. To be specific, photothermic stimulation was given to the tail of mouse, and the reaction latency until it moves the tail feeling the heat was measured. How the reaction latency changed in the diabetes group as compared to the normal group and the results with administration of 100 mg/kg of CDP-choline to the diabetes group are shown in FIG. 1.
(See the Method of Osawa and Kamei [Eur. J. Pharmacol., 372, 221–228 (1999)])
Streptozotocin (200 mg/kg) dissolved in citrate buffer (pH 4.5) was administered into the tail vein of male ICR mice (12–13 per group, body weight: about 20 g) to induce diabetes. […]
The assessment was performed using a tail-flick test.
Test: Assessment (Threshold Analysis) of Thermal Nociceptive Response Using diabetic Mice (in vivo)
CDP-choline Na was dissolved in distilled water and orally administered at a dose of 100 mg/kg once a day starting from the time point when 8 weeks passed from the administration of streptozotocin. […]

[2] = test system: streptozotocin-induced diabetic mice; assay: Charcoal powder transportability test of gastrointestinal tract using diabetic mice; assay type: in vivo, male ICR mice; conditions: diabetes group
Method: Test: Charcoal Powder Transportability Test of Gastrointestinal Tract Using Diabetic Mice (in vivo)
Streptozotocin (200 mg/kg) dissolved in citrate buffer (pH 4.5) was intraperitoneally administered to male ICR mice (7–11 per group, body weight: about 20 g) to induce diabetes.
CDP-choline Na was dissolved in distilled water and orally administered at a dose of 100 mg/kg. once a day from immediately after induction of diabetes.
The mice that had undergone streptozotocin administration 8 weeks before were used for the test. A 5% activated charcoal powder suspension was prepared using 0.5% aqueous carboxymethylcellulose solution, and orally administered at 0.1 ml/mice to mice fasted from the previous day. After 30 min, the gastrointestinal tract from pyloric portion of stomach to rectum was enucleated and the whole length was measured. In addition, the position of the activated charcoal powder after movement was confirmed and the distance of movement from pyloric portion of stomach was measured. This was converted to numerical values based on the whole length of from pyloric portion of stomach to rectum as 100%, and the data was processed and taken to show charcoal powder transportability of gastrointestinal tract.
How the charcoal powder transportability of gastrointestinal tract changed in the diabetes group as compared to the normal group and the results with administration of 100 mg/kg of CDP-choline to the diabetes group are shown in Table 1. In Table 1, the normal group, diabetes group and diabetes+CDP-choline administration group were divided into three criteria of less than 40%, not less than 40% and less than 60%, and not less than 60% of charcoal powder transportability of gastrointestinal tract, and the number of incidents in each criterion is shown in percentage.

[3] = test system: diabetic neuropathy patients; conditions: Phase III controlled clinical trial; cited from earlier work
[4] = test system: peripheral neuropathy induced by taxol; conditions: reported in WO 00/11952; cited from earlier work
[5] = 100 mg/kg oral once a day from induction, 8 weeks after streptozotocin

Compound: C[N+](C)(C)CCOP(=O)(O)OP(=O)([O-])OC[C@H]1O[C@@H](n2ccc(N)nc2=O)[C@H](O)[C@@H]1O [CDP-choline, cytidine 5′-diphosphocholine monosodium salt]
- reaction latency prolongation-inhibitory effect ([1]; 100 mg/kg oral from 8 weeks post-streptozotocin, at the lapse of 11 weeks after streptozotocin): significant reaction latency prolongation-inhibitory effect was observed
- inhibitory effect on prolongation of reaction latency (diminished sensation of the sensory nerves) ([1]; Example 5, oral once a day from 5 weeks post-streptozotocin, 100 mg/kg, FIG. 3 at 7 weeks, similar at 6 or 8 weeks): nearly completely inhibited
- effect on prolongation of reaction latency ([1]; diabetes group, 30 mg/kg oral, from 5 weeks post-streptozotocin, data not shown): a similar effect was observed
- inhibition of prolongation of reaction latency (diminished sensation) ([1]; diabetes group, 100 mg/kg oral once a day from 5 weeks post-streptozotocin, FIG. 2): almost completely inhibited
- inhibition of biphasic neuropathy (reaction latency, tail-flick) ([1]; diabetes group, 100 mg/kg oral once a day from immediately after induction of diabetes, FIG. 1): almost completely inhibited
- effect on reaction latency (tail-flick) ([1]; diabetes group, 300 mg/kg oral, from immediately after induction of diabetes): a similar effect was found
- effect on reaction latency (tail-flick) in normal group ([1]; normal group, 100 or 300 mg/kg): no effect on the reaction latency
- inhibition of degradation of charcoal powder transportability of gastrointestinal tract ([2]; 100 mg/kg oral): complete inhibition
- incidence of mice with charcoal powder transportability of gastrointestinal tract less than 40% [2, 5]: 0%
- incidence of mice with charcoal powder transportability of gastrointestinal tract not less than 40% and less than 60% [2, 5]: 71.4%
- incidence of mice with charcoal powder transportability of gastrointestinal tract not less than 60% [2, 5]: 28.6%

Compound: Cc1cccc(C)c1OCC(C)N (stereo not shown) [mexiletine hydrochloride]
- spontaneous pain relieving rate [3]: not more than 50%

Compound: CC(=O)OC[C@H]1O[C@@H](n2ccc(=O)[nH]c2=O)[C@H](OC(C)=O)[C@@H]1OC(C)=O [triacetyluridine]
- efficacy for peripheral neuropathy (diminished sensation) induced by taxol [4]: effective
